This passage reports activation results from patent US5420142A, “Certain 3-formyl-1, 4-dihydropyridines and their pharmaceutical composition and use” (Bayer Aktiengesellschaft, priority 1991, dated 1995).

The test system of this experiment is isolated guinea pig heart auricles. The experiment in a line: Substance effects on the contraction amplitude of isolated guinea pig heart auricles. Conditions: Cavia porcellus, active compound concentration 10^-4 g/l, read-out: Contractility (% control). From the text: The cardiac and vascular effects were found on isolated perfused guinea pig hearts. To this end, the hearts of guinea pigs of 250 to 350 g weight are used. The animals are killed by a blow to the head, the thorax is opened, and a metal cannula is tied into the exposed aorta. The heart is separated out of the thorax with the lungs and connected to the perfusion apparatus via an aortic cannula with continuous perfusion. The lungs are separated at the roots of the lung. The perfusion medium used is a Krebs-Henseleit solution (1) (118.5 mmol/l of NaCl, 4.75 mmol/l of KCl, 1.19 mmol/1 of KH2 PO4, 1.19 mmol/l of MgSO4, 25 mmol/l of NaHCO3, 0.013 mmol/l of Na2 EDTA), the CaCl2 content of which is 1.2 mmol/l. 10 mmol/l of glucose are added as an energy-producing substrate. The solution is filtered free from particles before perfusion. The solution is aerated with carbogen (95% O2, 5% CO2) to maintain the pH 7.4. The hearts are perfused with a constant flow (10 ml/min) at 32° C. by means of a peristaltic pump.
For the measurement of cardiac function, a liquid-filled latex balloon which is connected to a pressure transducer via a liquid column is inserted into the left ventricle through the left auricle, and the isovolumetric contractions are recorded on a rapid recorder (Opie, L., J. Physiol., 180 (1965), 529-541). The perfusion pressure is recorded by means of a pressure transducer which is connected to the perfusion system upstream of the heart. Under these conditions, a reduction in the perfusion pressure indicates a coronary dilation, and an increase or decrease in the left-ventricular contraction amplitude indicates […] in the heart contractility. The compounds according to the invention are perfused into the perfusion system in suitable dilutions Just upstream of the isolated heart.
Substance effects on the contraction amplitude of isolated guinea pig heart auricles at an active compound concentration of 10^-4 g/l.
As for `COC(=O)C1=C(C)NC(C)=C(C=O)C1c1cccc2ncc(-c3ccccc3)cc12` (stereo not drawn) [Example 4], the activation at 0.1 µg/mL was 41%.

`CC1=C(C=O)C(c2cccc3ncc(-c4ccccc4)cc23)C(C(=O)OC(C)C)=C(C)N1` (stereo not drawn) [Example 3]: the activation at 0.1 µg/mL amounted to 31%.

For the molecule `CCOC(=O)C1=C(C)NC(C)=C(C=O)C1c1cccc2ncc(-c3ccccc3)cc12` (stereo not drawn) [Example 1, Ethyl 1,4-dihydro-2,6-dimethyl-3-formyl-4-(3-phenylquinolin-5-yl)-pyridine-5-carboxylate], the activation at 0.1 µg/mL was found to be 32%.
